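1) Cells in 96-well plates. 2) Compound, 48 h, 5 concentrations. 3) Linear interpolation between surrounding doses. 4) Unreached endpoint = highest concentration. Abbreviation: GI50, concentration required for 50% inhibition of growth.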 Activity calls are given as the source filed them. Cut-off read from the data, not from the text of the source: active = GI50 up to about 1.1 µM and inactive = higher.
Columns and labels:
Assay in all cases: DTP human tumour cell line panel, 48 h
EKVX = tested on: EKVX
SK-MEL-5 = tested on: SK-MEL-5
NCI-H226 = tested on: NCI-H226
UO-31 = tested on: UO-31
SK-MEL-28 = tested on: SK-MEL-28
KM12 = tested on: KM12
LOX IMVI = tested on: LOX IMVI
UACC-62 = tested on: UACC-62
OVCAR-3 = tested on: OVCAR-3
IGROV-1 = tested on: IGROV-1
CCRF-CEM = tested on: CCRF-CEM
COLO 205 = tested on: COLO 205
HOP-62 = tested on: HOP-62
SK-OV-3 = tested on: SK-OV-3
HL-60 = tested on: HL-60
M14 = tested on: M14
KM-20L2 = tested on: KM-20L2
M19-MEL = tested on: M19-MEL
T47D = tested on: T47D
DU-145 = tested on: DU-145

Row | Structure (SMILES) | GI50 (EKVX) | GI50 (SK-MEL-5) | GI50 (NCI-H226) | GI50 (UO-31) | GI50 (SK-MEL-28) | GI50 (KM12) | GI50 (LOX IMVI) | GI50 (UACC-62) | GI50 (OVCAR-3) | GI50 (IGROV-1) | GI50 (CCRF-CEM) | GI50 (COLO 205) | GI50 (HOP-62) | GI50 (SK-OV-3) | GI50 (HL-60) | GI50 (M14) | GI50 (KM-20L2) | GI50 (M19-MEL) | GI50 (T47D) | GI50 (DU-145)
1 | COC(=O)C1=C(C(=O)OC)N(C(C)C)[C@H]2C(C(=O)OC)=C(C(=O)OC)N(C(C)C)[C@@H]12 | > 100 µM (inactive) | > 100 µM (inactive) | > 100 µM (inactive) | > 100 µM (inactive) | > 100 µM (inactive) | > 100 µM (inactive) | > 100 µM (inactive) | > 100 µM (inactive) | 95.1 µM (inactive) | > 100 µM (inactive) | > 100 µM (inactive) | > 100 µM (inactive) | > 100 µM (inactive) | > 100 µM (inactive) | 61.5 µM (inactive) | > 100 µM (inactive) | > 100 µM (inactive) | > 100 µM (inactive) | – | –
2 | CCc1ccccc1N1CCN(C(=O)c2cc(OC)c(OC)c(OC)c2)CC1 | 1.39 µM (inactive) | 0.0154 µM (active) | 0.103 µM (active) | 0.0685 µM (active) | 0.251 µM (active) | 0.0231 µM (active) | 0.0307 µM (active) | 0.0156 µM (active) | 0.0143 µM (active) | 0.0462 µM (active) | 0.0524 µM (active) | 0.0219 µM (active) | 0.0217 µM (active) | 0.0375 µM (active) | 0.0233 µM (active) | 0.0135 µM (active) | 0.0813 µM (active) | 0.0647 µM (active) | 17.3 µM (inactive) | 0.0207 µM (active)
3 | CCOc1ccccc1N1C(=O)C(=O)C(c2nc3ccccc3o2)C(=O)C1=O | 71.9 µM (inactive) | > 100 µM (inactive) | > 100 µM (inactive) | 61.5 µM (inactive) | > 100 µM (inactive) | – | > 100 µM (inactive) | > 100 µM (inactive) | > 100 µM (inactive) | > 100 µM (inactive) | > 100 µM (inactive) | > 100 µM (inactive) | > 100 µM (inactive) | 28.6 µM (inactive) | > 100 µM (inactive) | > 100 µM (inactive) | > 100 µM (inactive) | > 100 µM (inactive) | – | –
4 | CCCCCN(CCCCC)C(=O)[C@@H](CCC(=O)O)NC(=O)c1cc2ccccc2[nH]1 | 48.1 µM (inactive) | – | 37.3 µM (inactive) | 21.4 µM (inactive) | 21.4 µM (inactive) | 39.3 µM (inactive) | 59.3 µM (inactive) | 20.7 µM (inactive) | 33.9 µM (inactive) | 44 µM (inactive) | 22.8 µM (inactive) | 30.9 µM (inactive) | 32.2 µM (inactive) | 65.2 µM (inactive) | 24.1 µM (inactive) | 23.2 µM (inactive) | 40.5 µM (inactive) | 22.3 µM (inactive) | – | –
5 | CC(=O)Nc1[nH]c(=O)[nH]c(=O)c1N(C(C)=O)C(C)=O | > 100 µM (inactive) | > 100 µM (inactive) | > 100 µM (inactive) | > 100 µM (inactive) | > 100 µM (inactive) | > 100 µM (inactive) | > 100 µM (inactive) | > 100 µM (inactive) | > 100 µM (inactive) | > 100 µM (inactive) | > 100 µM (inactive) | > 100 µM (inactive) | – | – | > 100 µM (inactive) | > 100 µM (inactive) | > 100 µM (inactive) | > 100 µM (inactive) | – | –
6 | O=C(CC1(O)C(=O)Nc2c(Cl)ccc(Cl)c21)c1ccc2ccccc2c1 (configuration not stated) | 15.8 µM (inactive) | 5.65 µM (inactive) | 19.2 µM (inactive) | 18.1 µM (inactive) | 14.8 µM (inactive) | 4.69 µM (inactive) | 11.2 µM (inactive) | 3.24 µM (inactive) | 4.17 µM (inactive) | 14.3 µM (inactive) | 3.62 µM (inactive) | 14.9 µM (inactive) | 29 µM (inactive) | 11.9 µM (inactive) | 1.73 µM (inactive) | 8.85 µM (inactive) | 7.08 µM (inactive) | 2.65 µM (inactive) | – | –
7 | Clc1cc(Cl)cc(Nc2nc3ccccc3nc2-c2cccs2)c1 | 41.3 µM (inactive) | – | 40 µM (inactive) | 42.6 µM (inactive) | > 10 µM (inactive) | – | 94.6 µM (inactive) | > 10 µM (inactive) | 29.1 µM (inactive) | – | > 100 µM (inactive) | 7.23 µM (inactive) | 40.4 µM (inactive) | 31.3 µM (inactive) | 25.8 µM (inactive) | – | > 10 µM (inactive) | 24.2 µM (inactive) | – | –
8 | [O-][Cl+3]([O-])([O-])[O-].c1ccc(-c2csc3c4ccccc4c4ccccc4[n+]23)cc1 | 8.79 µM (inactive) | 0.971 µM (active) | 3.1 µM (inactive) | 10.7 µM (inactive) | 2.7 µM (inactive) | 1.47 µM (inactive) | 4.58 µM (inactive) | 1.88 µM (inactive) | 0.897 µM (active) | 3.95 µM (inactive) | 2.25 µM (inactive) | 2.25 µM (inactive) | 7.1 µM (inactive) | 13.9 µM (inactive) | 1.91 µM (inactive) | 9.48 µM (inactive) | 5.53 µM (inactive) | 1.61 µM (inactive) | – | –
9 | Nc1c(-c2ccc(-c3c(N)[n+]([O-])c4ccccc4[n+]3[O-])cc2)[n+]([O-])c2ccccc2[n+]1[O-] | 31.8 µM (inactive) | 10.1 µM (inactive) | 20.6 µM (inactive) | 16.4 µM (inactive) | 5.73 µM (inactive) | 11.1 µM (inactive) | 9.75 µM (inactive) | 10.2 µM (inactive) | 15.7 µM (inactive) | 17.7 µM (inactive) | 38.7 µM (inactive) | 10.1 µM (inactive) | 17.8 µM (inactive) | 24.9 µM (inactive) | 13.9 µM (inactive) | 12.2 µM (inactive) | > 10 µM (inactive) | 11.3 µM (inactive) | – | –
10 | CC(=O)NNc1nc(C)c(C(/C=C/c2ccc(/C=C/C(=N\NC(=O)c3ccncc3)c3sc(NNC(C)=O)nc3C)cc2)=N/NC(=O)c2ccncc2)s1 | > 100 µM (inactive) | > 100 µM (inactive) | > 100 µM (inactive) | > 100 µM (inactive) | > 100 µM (inactive) | > 100 µM (inactive) | > 100 µM (inactive) | > 100 µM (inactive) | > 100 µM (inactive) | > 100 µM (inactive) | > 100 µM (inactive) | > 100 µM (inactive) | > 100 µM (inactive) | > 100 µM (inactive) | > 100 µM (inactive) | 41.7 µM (inactive) | > 100 µM (inactive) | > 100 µM (inactive) | – | –
11 | FC(F)(F)c1ccc2nc(Nc3ccc(Cl)c(Cl)c3)c(-c3ccccc3)nc2c1 | > 100 µM (inactive) | – | > 100 µM (inactive) | > 100 µM (inactive) | 82.8 µM (inactive) | – | 13.8 µM (inactive) | – | 37.5 µM (inactive) | – | 30.5 µM (inactive) | 61.8 µM (inactive) | > 100 µM (inactive) | – | 8.57 µM (inactive) | – | 55.7 µM (inactive) | 48.5 µM (inactive) | – | –
12 | C=CCNc1nc2c(s1)C(=O)c1ccccc1C2=O | 15.6 µM (inactive) | 1.7 µM (inactive) | 21.2 µM (inactive) | 13.3 µM (inactive) | 9.71 µM (inactive) | 13.8 µM (inactive) | 4.31 µM (inactive) | 3.9 µM (inactive) | 12.1 µM (inactive) | 8.73 µM (inactive) | – | 20.1 µM (inactive) | 13.4 µM (inactive) | 17.9 µM (inactive) | 1.61 µM (inactive) | 5.12 µM (inactive) | 19.1 µM (inactive) | 1.76 µM (inactive) | 14.4 µM (inactive) | 18.6 µM (inactive)
13 | O=c1ncccn1[C@@H]1O[C@H](CO)[C@H](O)C1O (some centres not stated) | > 100 µM (inactive) | > 100 µM (inactive) | > 100 µM (inactive) | > 100 µM (inactive) | > 100 µM (inactive) | > 100 µM (inactive) | > 61.8 µM (inactive) | > 99.5 µM (inactive) | > 100 µM (inactive) | > 100 µM (inactive) | 49 µM (inactive) | > 88.7 µM (inactive) | 68.2 µM (inactive) | > 100 µM (inactive) | 47.3 µM (inactive) | > 100 µM (inactive) | > 78 µM (inactive) | > 100 µM (inactive) | – | –
14 | COC(=O)C(Cc1nc2ccc(Cl)cc2nc1O)C(=O)C(=O)Nc1cc(C)ccc1C (configuration not stated) | 8.2 µM (inactive) | > 100 µM (inactive) | > 100 µM (inactive) | > 100 µM (inactive) | > 100 µM (inactive) | > 100 µM (inactive) | > 100 µM (inactive) | > 100 µM (inactive) | > 100 µM (inactive) | > 100 µM (inactive) | > 100 µM (inactive) | > 100 µM (inactive) | > 100 µM (inactive) | > 100 µM (inactive) | > 100 µM (inactive) | > 100 µM (inactive) | > 100 µM (inactive) | > 100 µM (inactive) | – | –
15 | O=C(NC12CC3CC(CC(C3)C1)C2)C(=O)c1c[nH]c2ccc(Cl)cc12 | > 100 µM (inactive) | 42.2 µM (inactive) | 37.4 µM (inactive) | 66.4 µM (inactive) | 35.4 µM (inactive) | 35.6 µM (inactive) | 10.1 µM (inactive) | 40.1 µM (inactive) | 13.8 µM (inactive) | 54.1 µM (inactive) | 46.3 µM (inactive) | 81.8 µM (inactive) | 7.13 µM (inactive) | 32.7 µM (inactive) | 17.3 µM (inactive) | 20 µM (inactive) | 5.73 µM (inactive) | 79.1 µM (inactive) | – | –
16 | N#CCC(=O)NC1C2CC3CC(C2)CC1C3 (configuration not stated) | 18.9 µM (inactive) | 14.6 µM (inactive) | 22.2 µM (inactive) | 49 µM (inactive) | 19.1 µM (inactive) | 17.7 µM (inactive) | 10.7 µM (inactive) | 15.1 µM (inactive) | 18.1 µM (inactive) | 25.4 µM (inactive) | 18.7 µM (inactive) | 19.3 µM (inactive) | 23.4 µM (inactive) | 37.4 µM (inactive) | 22.8 µM (inactive) | 19.9 µM (inactive) | 18.2 µM (inactive) | 24.5 µM (inactive) | – | –

Source: ChEMBL document CHEMBL1201862, “PubChem BioAssay data set” (2004)
